Laboratory results taken from PubChem BioAssay AID2060910 (Molecular Pharmacology Branch, DTP, NCI, 2025).

Tested on: 242566-281-R-J2-PDC complex spheroid viability
Experiment: Anticancer human tumor 242566-281-R-J2-PDC patient-derived pancreatic carcinoma cell line growth inhibition [RAS]
Conditions: for IC50: curve of first compound; for viability, T/C: stronger effect = lower value
Method in brief: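 Agents were tested in combination matrices in half-log decrements from a top concentration at or near clinical Cmax (10 microM if undetermined). Targets were multi-cell spheroids of tumour lines plus HUVEC and MSC stromal cells.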
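Also: spheroids exposed to compound for 7 days before readout.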
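For viability, T/C in this document: 100% = DMSO vehicle control wells.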

CCN1CCN(Cc2ccc(Nc3ncc(F)c(-c4cc(F)c5nc(C)n(C(C)C)c5c4)n3)nc2)CC1 + CCn1c(-c2cc(N3CCN(C)CC3)cnc2C(C)OC)c2c3cc(ccc31)-c1csc(n1)CC(NC(=O)C1CC1C)C(=O)N1CCCC(N1)C(=O)OCC(C)(C)C2
IC50 (second compound 0.000949 µM): > 1000 nM | IC50 (second compound 0.003 µM): > 1000 nM | IC50 (second compound 0.00949 µM): < 3.16 nM | IC50 (second compound 0.03 µM): < 3.16 nM | IC50 (second compound 0.0949 µM): < 3.16 nM | IC50 (second compound 0.3 µM): < 3.16 nM | viability, T/C (second compound 0.000949 µM, first compound 0.00316 µM): 88.6% | viability, T/C (second compound 0.000949 µM, first compound 0.01 µM): 88.5% | viability, T/C (second compound 0.000949 µM, first compound 0.0316 µM): 69.9% | viability, T/C (second compound 0.000949 µM, first compound 0.1 µM): 76% | viability, T/C (second compound 0.000949 µM, first compound 0.316 µM): 90.5% | viability, T/C (second compound 0.000949 µM, first compound 1 µM): 83.7% | viability, T/C (second compound 0.003 µM, first compound 0.00316 µM): 81.9% | viability, T/C (second compound 0.003 µM, first compound 0.01 µM): 67.8% | viability, T/C (second compound 0.003 µM, first compound 0.0316 µM): 58.8% | viability, T/C (second compound 0.003 µM, first compound 0.1 µM): 63.8% | viability, T/C (second compound 0.003 µM, first compound 0.316 µM): 71.8% | viability, T/C (second compound 0.003 µM, first compound 1 µM): 56.1% | viability, T/C (second compound 0.00949 µM, first compound 0.00316 µM): 53.8% | viability, T/C (second compound 0.00949 µM, first compound 0.01 µM): 38.4% | viability, T/C (second compound 0.00949 µM, first compound 0.0316 µM): 43.2% | viability, T/C (second compound 0.00949 µM, first compound 0.1 µM): 39.6% | viability, T/C (second compound 0.00949 µM, first compound 0.316 µM): 42.9% | viability, T/C (second compound 0.00949 µM, first compound 1 µM): 48.1% | viability, T/C (second compound 0.03 µM, first compound 0.00316 µM): 27.8% | viability, T/C (second compound 0.03 µM, first compound 0.01 µM): 31.3% | viability, T/C (second compound 0.03 µM, first compound 0.0316 µM): 29.7% | viability, T/C (second compound 0.03 µM, first compound 0.1 µM): 30.9% | viability, T/C (second compound 0.03 µM, first compound 0.316 µM): 29.2% | viability, T/C (second compound 0.03 µM, first compound 1 µM): 40.9% | viability, T/C (second compound 0.0949 µM, first compound 0.00316 µM): 22% | viability, T/C (second compound 0.0949 µM, first compound 0.01 µM): 22.1% | viability, T/C (second compound 0.0949 µM, first compound 0.0316 µM): 20.8% | viability, T/C (second compound 0.0949 µM, first compound 0.1 µM): 22% | viability, T/C (second compound 0.0949 µM, first compound 0.316 µM): 22% | viability, T/C (second compound 0.0949 µM, first compound 1 µM): 31.6% | viability, T/C (second compound 0.3 µM, first compound 0.00316 µM): 19.2% | viability, T/C (second compound 0.3 µM, first compound 0.01 µM): 18.9% | viability, T/C (second compound 0.3 µM, first compound 0.0316 µM): 19.1% | viability, T/C (second compound 0.3 µM, first compound 0.1 µM): 20.3% | viability, T/C (second compound 0.3 µM, first compound 0.316 µM): 22.4% | viability, T/C (second compound 0.3 µM, first compound 1 µM): 32.7%

CCc1c2c(nc3ccc(O)cc13)-c1cc3c(c(=O)n1C2)COC(=O)[C@]3(O)CC + C#Cc1c(F)ccc2cc(O)cc(-c3ncc4c(N5CC6CCC(C5)N6)nc(OCC56CCCN5CC(F)C6)nc4c3F)c12
IC50 (second compound 0.0316 µM): 31.6 nM | IC50 (second compound 0.1 µM): 24.1 nM | IC50 (second compound 0.316 µM): 15.1 nM | IC50 (second compound 1 µM): 6.64 nM | IC50 (second compound 3.16 µM): 3.3 nM | IC50 (second compound 10 µM): 3.46 nM | viability, T/C (second compound 0.0316 µM, first compound 0.000949 µM): 100% | viability, T/C (second compound 0.0316 µM, first compound 0.003 µM): 97.3% | viability, T/C (second compound 0.0316 µM, first compound 0.00949 µM): 76.1% | viability, T/C (second compound 0.0316 µM, first compound 0.03 µM): 51.3% | viability, T/C (second compound 0.0316 µM, first compound 0.0949 µM): 29.3% | viability, T/C (second compound 0.0316 µM, first compound 0.3 µM): 17.7% | viability, T/C (second compound 0.1 µM, first compound 0.000949 µM): 74.1% | viability, T/C (second compound 0.1 µM, first compound 0.003 µM): 86.4% | viability, T/C (second compound 0.1 µM, first compound 0.00949 µM): 70.2% | viability, T/C (second compound 0.1 µM, first compound 0.03 µM): 44.9% | viability, T/C (second compound 0.1 µM, first compound 0.0949 µM): 39.4% | viability, T/C (second compound 0.1 µM, first compound 0.3 µM): 31.7% | viability, T/C (second compound 0.316 µM, first compound 0.000949 µM): 72.8% | viability, T/C (second compound 0.316 µM, first compound 0.003 µM): 74.9% | viability, T/C (second compound 0.316 µM, first compound 0.00949 µM): 53% | viability, T/C (second compound 0.316 µM, first compound 0.03 µM): 45% | viability, T/C (second compound 0.316 µM, first compound 0.0949 µM): 35.4% | viability, T/C (second compound 0.316 µM, first compound 0.3 µM): 36% | viability, T/C (second compound 1 µM, first compound 0.000949 µM): 59.3% | viability, T/C (second compound 1 µM, first compound 0.003 µM): 66% | viability, T/C (second compound 1 µM, first compound 0.00949 µM): 44.3% | viability, T/C (second compound 1 µM, first compound 0.03 µM): 36% | viability, T/C (second compound 1 µM, first compound 0.0949 µM): 29.5% | viability, T/C (second compound 1 µM, first compound 0.3 µM): 30.8% | viability, T/C (second compound 3.16 µM, first compound 0.000949 µM): 56.3% | viability, T/C (second compound 3.16 µM, first compound 0.003 µM): 50.6% | viability, T/C (second compound 3.16 µM, first compound 0.00949 µM): 40.8% | viability, T/C (second compound 3.16 µM, first compound 0.03 µM): 32.7% | viability, T/C (second compound 3.16 µM, first compound 0.0949 µM): 31.5% | viability, T/C (second compound 3.16 µM, first compound 0.3 µM): 30.4% | viability, T/C (second compound 10 µM, first compound 0.000949 µM): 58.6% | viability, T/C (second compound 10 µM, first compound 0.003 µM): 52.5% | viability, T/C (second compound 10 µM, first compound 0.00949 µM): 38.3% | viability, T/C (second compound 10 µM, first compound 0.03 µM): 41% | viability, T/C (second compound 10 µM, first compound 0.0949 µM): 29.2% | viability, T/C (second compound 10 µM, first compound 0.3 µM): 22.8%

C#Cc1c(F)ccc2cc(O)cc(-c3ncc4c(N5CC6CCC(C5)N6)nc(OCC56CCCN5CC(F)C6)nc4c3F)c12 (centres undefined)
viability, T/C (compound 0.0316 µM): 84.1% [middle of 8 runs] | viability, T/C (compound 0.1 µM): 80.2% [middle of 8 runs] | viability, T/C (compound 0.316 µM): 71.4% [middle of 8 runs] | viability, T/C (compound 3.16 µM): 53.9% [middle of 8 runs] | viability, T/C (compound 10 µM): 49.6% [middle of 8 runs]
